Tests used:
[1] = target: proteinase K (Parengyodontium album, UniProt P06873); assay: Proteolysis assessment (FITC-BSA fluorescence with proteinase K); conditions: proteinase K 0.05 mg/ml, over time; FIG. 3
Procedure: Proteolysis Assessment: Protein degradation was determined by monitoring the fluorescence intensity increment in FITC-BSA when samples were subjected to proteinase K (0.05 mg/mI), using a fluorescence spectrophotometer (Hitachi, Japan, λex=490 nm and λem=530 nm). All measurements were run in triplicate.

[2] = system: SKBR-3 (HER2-overexpressing human breast cancer cell line); assay: Cancer cell proliferation assessment (Alamar Blue); format: cell-based; conditions: SKBR-3 cells; Herceptin 0.5 mg/ml; FIG. 4
Procedure: Cancer Cell Proliferation Assessment: SKBR-3 cells (ATCC, HTB3O, USA) were plated (1×10^4 cells in McCoy's 5 A medium/well) in quintuplicate and octuplicate for samples and control, respectively, in 96-well microplates and allowed to adhere overnight. […] At the time points indicated, the culture media were replaced by the phenol red-free media containing 10% of Alamar Blue. Cell proliferation was determined from the reduction in dye absorbance at 570 and 600 nm after 4 h of incubation.

[3] = system: human normal mammary epithelial cells (HMEC); assay: Cytotoxicity test (Alamar Blue cell viability); format: cell-based; conditions: treated 2 days, different concentrations, FIG. 1
Procedure: Cells were plated (1×10^4 cells in mammary epithelial growth medium/well) in quintuplicate and octuplicate for samples and control, respectively, in 96-well microplates, and allowed to adhere overnight.

Sequence of proteinase K (P06873 106-384): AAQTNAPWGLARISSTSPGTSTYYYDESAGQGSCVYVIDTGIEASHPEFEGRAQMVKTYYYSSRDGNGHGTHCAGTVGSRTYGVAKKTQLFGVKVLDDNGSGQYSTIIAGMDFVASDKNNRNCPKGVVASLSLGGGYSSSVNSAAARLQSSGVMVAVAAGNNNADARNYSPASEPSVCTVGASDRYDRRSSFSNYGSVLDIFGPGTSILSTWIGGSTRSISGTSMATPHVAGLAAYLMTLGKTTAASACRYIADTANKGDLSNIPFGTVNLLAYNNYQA

free FITC-BSA: fluorescence-labeled protein (FITC-BSA)
fluorescence intensity of FITC-BSA (protein degradation) [1]: greatly increased with time

oligomeric (−)-epigallocatechin-3-O-gallate [OEGCG]
inhibition of cell growth [2]: inhibited

(−)-epigallocatechin gallate [EGCG]
cytotoxicity [3]: low cytotoxicity

Reference: US9248200B2, “Method of delivering an anti-cancer agent to a cell” (Agency for Science, Technology and Research, priority 2007, dated 2016)
